Reference: patent US8758816B2, “Compositions comprising azelastine and methods of use thereof” (priority 2004, dated 2014)

System: patients with seasonal allergic rhinitis (SAR)
Test: MP 428 two-week randomized double-blind study: Total Nasal Symptom Score (TNSS), change from baseline
Assay type: in vivo, human
Parameters: key to Change from Baseline in AM TNSS, Mean / Change from Baseline in AM TNSS, LS Mean / Change from Baseline in AM TNSS, Median: TNSS sum of 4 symptoms each 0-3 (0=none, 3=severe); change from baseline
Description: A two-week, randomized, double-blind study, which evaluated the effects of the co-administration of ASTELIN® (azelastine hydrochloride (HCl)) and FLONASE® (fluticasone propionate) compared to either product alone in patients with seasonal allergic rhinitis (SAR) was conducted during the 2006 Texas mountain cedar season. After a 5-day placebo lead-in period, 151 patients with moderate-to-severe allergic rhinitis symptoms were randomized to either: (1) (49 total patients) ASTELIN® (azelastine hydrochloride (HCl)) plus placebo saline nasal spray 2 sprays per nostril, 15 minutes apart, twice daily (AM & PM); (2) (50 total patients) FLONASE® (fluticasone propionate) plus placebo saline nasal spray, 2 sprays per nostril, 15 minutes apart, once daily (AM) and two sessions of placebo saline nasal spray, 2 sprays per nostril, 15 minutes apart (PM); or (3) (52 total patients) the co-administration of ASTELIN® (azelastine hydrochloride (HCl)) 2 sprays per nostril plus FLONASE® (fluticasone propionate) 2 sprays per nostril (AM), 15 minutes apart, and ASTELIN® (azelastine hydrochloride (HCl)) 2 sprays per nostril plus placebo saline nasal spray, 15 minutes apart, (PM) for a 2-week double-blind treatment period.
The primary efficacy variable was the change from baseline in the Total Nasal Symptom Score (TNSS), which comprised sneezing, itchy nose, runny nose, and nasal congestion (individual symptoms scores were assigned a value between 0 and 3, where 0=no symptoms and 3=severe symptoms). This study was not statistically designed to assess the differences between ASTELIN® and FLONASE®.

[1] = Day 5, Intent-to-Treat Population
[2] = Day 6, Intent-to-Treat Population
[3] = Day 7, Intent-to-Treat Population
[4] = Day 8, Intent-to-Treat Population
[5] = Day 9, Intent-to-Treat Population

Compound: CCC(=O)O[C@]1(C(=O)SCF)[C@H](C)C[C@H]2[C@@H]3C[C@H](F)C4=CC(=O)C=C[C@]4(C)[C@@]3(F)[C@@H](O)C[C@@]21C [Fluticasone, fluticasone propionate]
- Percent Change from Baseline in AM and PM Combined TNSS, Mean [1]: −26.89%
- Percent Change from Baseline in AM and PM Combined TNSS, Median [1]: −22.77%
- Percent Change from Baseline in PM TNSS, LS Mean [1]: −27.51%
- Percent Change from Baseline in PM TNSS, Mean [1]: −27.06%
- Percent Change from Baseline in PM TNSS, Median [1]: −22.22%
- Change from Baseline in AM and PM Combined TNSS, LS Mean (Day 5, Intent-to-Treat Population, ANCOVA model): −5.20
- Change from Baseline in AM and PM Combined TNSS, LS Mean (Day 5, Per-Protocol Population): −5.23
- Change from Baseline in AM and PM Combined TNSS, Mean (Day 5, Per-Protocol Population): −5.23
- Change from Baseline in AM and PM Combined TNSS, Median (Day 5, Per-Protocol Population): −4.40
- Percent Change from Baseline in AM and PM Combined TNSS, LS Mean (Day 5, Per-Protocol Population): −27.42%
- Percent Change from Baseline in AM and PM Combined TNSS, Mean (Day 5, Per-Protocol Population): −27.16%
- Percent Change from Baseline in AM and PM Combined TNSS, Median (Day 5, Per-Protocol Population): −22.77%
- Change from Baseline in AM TNSS, LS Mean [2]: −2.59
- Change from Baseline in AM TNSS, Mean [2]: −2.57
- Change from Baseline in AM TNSS, Median [2]: −2.20
- Change from Baseline in AM and PM Combined TNSS, Mean [2]: −5.10
- Change from Baseline in AM and PM Combined TNSS, Median [2]: −4.45
- Change from Baseline in PM TNSS, LS Mean [2]: −2.53
- Change from Baseline in PM TNSS, Mean [2]: −2.53
- Change from Baseline in PM TNSS, Median [2]: −2.00
- Percent Change from Baseline in AM TNSS, LS Mean [2]: −27.42%
- Percent Change from Baseline in AM TNSS, Mean [2]: −27.12%
- Percent Change from Baseline in AM TNSS, Median [2]: −23.81%
- Percent Change from Baseline in AM and PM Combined TNSS, LS Mean [2]: −27.15%
- Percent Change from Baseline in AM and PM Combined TNSS, Mean [2]: −26.90%
- Percent Change from Baseline in AM and PM Combined TNSS, Median [2]: −22.20%
- Percent Change from Baseline in PM TNSS, LS Mean [2]: −26.81%
- Percent Change from Baseline in PM TNSS, Mean [2]: −26.62%
- Percent Change from Baseline in PM TNSS, Median [2]: −22.22%
- Change from Baseline in AM and PM Combined TNSS, LS Mean (Day 6, Intent-to-Treat Population, ANCOVA model): −5.12
- Change from Baseline in AM and PM Combined TNSS, LS Mean (Day 6, Per-Protocol Population): −5.11
- Change from Baseline in AM and PM Combined TNSS, Mean (Day 6, Per-Protocol Population): −5.12
- Change from Baseline in AM and PM Combined TNSS, Median (Day 6, Per-Protocol Population): −4.45
- Percent Change from Baseline in AM and PM Combined TNSS, LS Mean (Day 6, Per-Protocol Population): −27.15%
- Percent Change from Baseline in AM and PM Combined TNSS, Mean (Day 6, Per-Protocol Population): −26.95%
- Percent Change from Baseline in AM and PM Combined TNSS, Median (Day 6, Per-Protocol Population): −22.20%
- Change from Baseline in AM TNSS, LS Mean [3]: −2.55
- Change from Baseline in AM TNSS, Mean [3]: −2.57
- Change from Baseline in AM TNSS, Median [3]: −2.00
- Change from Baseline in AM and PM Combined TNSS, Mean [3]: −5.02
- Change from Baseline in AM and PM Combined TNSS, Median [3]: −5.00
- Change from Baseline in PM TNSS, LS Mean [3]: −2.50
- Change from Baseline in PM TNSS, Mean [3]: −2.45
- Change from Baseline in PM TNSS, Median [3]: −2.00
- Percent Change from Baseline in AM TNSS, LS Mean [3]: −26.16%
- Percent Change from Baseline in AM TNSS, Mean [3]: −26.29%
- Percent Change from Baseline in AM TNSS, Median [3]: −22.22%
- Percent Change from Baseline in AM and PM Combined TNSS, LS Mean [3]: −26.00%
- Percent Change from Baseline in AM and PM Combined TNSS, Mean [3]: −25.75%
- Percent Change from Baseline in AM and PM Combined TNSS, Median [3]: −23.81%
- Percent Change from Baseline in PM TNSS, LS Mean [3]: −25.72%
- Percent Change from Baseline in PM TNSS, Mean [3]: −25.18%
- Percent Change from Baseline in PM TNSS, Median [3]: −20.45%
- Change from Baseline in AM and PM Combined TNSS, LS Mean (Day 7, Intent-to-Treat Population, ANCOVA model): −5.06
- Change from Baseline in AM and PM Combined TNSS, LS Mean (Day 7, Per-Protocol Population): −4.98
- Change from Baseline in AM and PM Combined TNSS, Mean (Day 7, Per-Protocol Population): −4.99
- Change from Baseline in AM and PM Combined TNSS, Median (Day 7, Per-Protocol Population): −5.00
- Percent Change from Baseline in AM and PM Combined TNSS, LS Mean (Day 7, Per-Protocol Population): −25.63%
- Percent Change from Baseline in AM and PM Combined TNSS, Mean (Day 7, Per-Protocol Population): −25.57%
- Percent Change from Baseline in AM and PM Combined TNSS, Median (Day 7, Per-Protocol Population): −23.81%
- Change from Baseline in AM TNSS, LS Mean [4]: −2.40
- Change from Baseline in AM TNSS, Mean [4]: −2.36
- Change from Baseline in AM TNSS, Median [4]: −1.67
- Change from Baseline in AM and PM Combined TNSS, Mean [4]: −4.55
- Change from Baseline in AM and PM Combined TNSS, Median [4]: −3.70
- Change from Baseline in PM TNSS, LS Mean [4]: −2.24
- Change from Baseline in PM TNSS, Mean [4]: −2.18
- Change from Baseline in PM TNSS, Median [4]: −2.00
- Percent Change from Baseline in AM TNSS, LS Mean [4]: −25.01%
- Percent Change from Baseline in AM TNSS, Mean [4]: −24.67%
- Percent Change from Baseline in AM TNSS, Median [4]: −19.23%
- Percent Change from Baseline in AM and PM Combined TNSS, LS Mean [4]: −23.87%
- Percent Change from Baseline in AM and PM Combined TNSS, Mean [4]: −23.38%
- Percent Change from Baseline in AM and PM Combined TNSS, Median [4]: −20.97%
- Percent Change from Baseline in PM TNSS, LS Mean [4]: −22.44%
- Percent Change from Baseline in PM TNSS, Mean [4]: −21.91%
- Percent Change from Baseline in PM TNSS, Median [4]: −21.95%
- Change from Baseline in AM and PM Combined TNSS, LS Mean (Day 8, Intent-to-Treat Population, ANCOVA model): −4.64
- Change from Baseline in AM and PM Combined TNSS, LS Mean (Day 8, Per-Protocol Population): −4.61
- Change from Baseline in AM and PM Combined TNSS, Mean (Day 8, Per-Protocol Population): −4.59
- Change from Baseline in AM and PM Combined TNSS, Median (Day 8, Per-Protocol Population): −3.70
- Percent Change from Baseline in AM and PM Combined TNSS, LS Mean (Day 8, Per-Protocol Population): −23.68%
- Percent Change from Baseline in AM and PM Combined TNSS, Mean (Day 8, Per-Protocol Population): −23.43%
- Percent Change from Baseline in AM and PM Combined TNSS, Median (Day 8, Per-Protocol Population): −20.97%
- Change from Baseline in AM TNSS, LS Mean [5]: −2.43
- Change from Baseline in AM TNSS, Mean [5]: −2.38
